Results from patent US4552888A, “Ascorbic acid ethers in angiogene” (Eli Lilly and Company, priority 1983, dated 1985).
Structures can show the parent of a compound that is named as a salt. Where two headings read alike, the source gives them in different places.

Experiments:
pKa by titration = assay type: physicochemical
angiogenesis factor = experiment: Inhibition of angiogenesis factor (3683 Morris hepatoma lysosomal-mitochondrial pellet) induced serpentine vessels in mice; assay type: in vivo, mice (SPF/ND4 female)
Method: Lysosomal-mitochondrial pellets containing angiogenesis factor are prepared from 3683 Morris hepatoma. The pellet is diluted with 7-8 ml. of 15% ficoll. With this dilution, 8-10 serpentine vessels will be produced per 0.2 cc. injection as described below for the control group.
Next, 15 SPF/ND4 female mice weighing 20-22 g. are shaved on the left side and then divided into three groups of five each. One group (drug group) is injected subcutaneously and laterally with 0.20 cc. of the lysosomal-mitochondrial preparation diluted with 15% ficoll. This group of mice is then dosed individually by the intraperitoneal route with 0.5 cc. of a solution or suspension in a standard vehicle containing the compound under test, usually at an initial dose level of 300 mg./kg. If this dose level is toxic, two-fold dilutions are made until all mice survive a single dose. The second group of mice (control group) is injected subcutaneously and laterally with 0.2 cc. of the lysosomal-mitochondrial suspension diluted with 15% ficoll and dosed intraperitoneally with 0.5 cc. of the vehicle alone. The third group (negative control) is injected with ficoll solution only (no treatment with drug or vehicle). The mice are sacrificed after 24 hours. Each mouse is placed on its side on a dissecting board with the shaved side up. Starting at the flank, the skin is cut straight to the back of the animal. A similar cut is made behind the front leg. Then the skin is cut along the back making a flap of about one inch by two inches. The skin is carefully separated from the connective tissue using forceps and a scalpel. The skin flap is then laid back exposing the lysosomal-mitochondrial implant which is attached to the skin. The skin flap is gently flattened out and with the use of a binocular dissecting scope, serpentine vessels are observed around the lysosomal-mitochondrial implant and their number counted. All observations of the number of serpentine vessels are made at the same power of the microscope (1X). The average number of serpentine vessels for each group is calculated. The percent inhibition is then calculated according to the following equation. [formula] where sv=average number of serpentine vessels.
If the negative control group described above has any serpentine vessels, the test is invalid due to contamination of the ficoll solution.
Table I covers compounds according to formula I above in which R^2 and R^3 are both H, table II covers compounds in which R^2 and R^3 form a 1-methylethylidene group, and Table III compounds in which R^2 plus R^3 equal a benzylidene group or other group.
One of the compounds of this invention, 3-O-n-octadecyl-5,6-O-(1-methylethylidene)-L-ascorbic acid was tested at a series of dose levels for its ability to inhibit tumor angiogenesis and the results of these tests are set forth in Table IV.

[1] = Mus musculus, ip, 24 h, Table 2, i.p., dose 25 mg./kg., 24 hours, read-out: % inhibition (serpentine vessels)
[2] = Mus musculus, ip, 24 h, Table 3, 150 mg./kg. dose intraperitoneally
[3] = Mus musculus, ip, 24 h, Table 1
[4] = Mus musculus, ip, 24 h, Table 1, i.p., dose 25 mg./kg., 24 hours, read-out: average % inhibition (serpentine vessels)
[5] = Mus musculus, ip, 24 h, Table 2, dose 150 mg./kg.
[6] = Table 2, i.p., dose 10 mg./kg., 24 hours

CCCCCCCCCCCCCCCCCCOC1=C(O)C(=O)O[C@@H]1[C@H](O)CO (relative stereo) [3-O-n-octadecyl isoascorbic acid]
pKa (pKa by titration; read-out: pKa): 11.6

CC1(C)OC[C@@H]([C@H]2OC(=O)C(OCCCCC#N)=C2OCCCCC#N)O1 [2,3-O-bis(4-cyanobutyl)-5,6-O-(1-methylethylidene)-L-ascorbic acid]
titratable group (pKa by titration): No titratable group

CC1(C)OC[C@@H]([C@H]2OC(=O)C(OCc3ccc(F)cc3)=C2OCc2ccc(F)cc2)O1 [2,3-O-bis(4-fluorobenzyl)-5,6-O-(1-methylethylidene)-L-ascorbic acid]
inhibition in vivo at 37.5 mg/kg (angiogenesis factor; Mus musculus, ip, 24 h, Table 2, dose 37.5 mg./kg.): 45% | titratable group (pKa by titration): No titratable group

CCCCCCCCCCCCCCCCCCOC1=C(OCCCCCCCCCCCCCCCCCC)[C@@H]([C@@H]2COC(C)(C)O2)OC1=O [2,3-O-bis(n-octadecy-5,6-O-(1-methylethylidene)-L-ascorbic acid]
inhibition in vivo at 25 mg/kg (angiogenesis factor; [1]): 18 to 85% | titratable group (pKa by titration): No titratable group

CCCCCCCCCCCCCCCOC1=C(OCCCCCCCCCCCCCCC)[C@@H]([C@@H]2COC(C)(C)O2)OC1=O [2,3-O-bis(n-pentadecyl)-5,6-O-(1-methylethylidene)-L-ascorbic acid]
titratable group (pKa by titration): No titratable groups

Cc1ccccc1COC1=C(OCc2ccccc2C)[C@@H]([C@@H]2COC(C)(C)O2)OC1=O [2,3-bis(O-2-methylbenzyl)-5,6-O-(1-methylethylidene-L-ascorbic acid]
titratable group (pKa by titration): No titratable group

CCCCCCCCCCCCCCCCOC1=C(OCCCCCCCCCCCCCCCC)[C@@H]([C@@H](O)CO)OC1=O [2,3-di-(O-n-hexadecyl)-L-ascorbic acid]
titratable group (pKa by titration): no titratable group

CCCCCCCCCCCCCCCCCCOC1=C(OCCCN(C)C)C(=O)O[C@@H]1[C@@H](O)CO [2-O-(3-dimethylaminopropyl)-3-O-n-octadecyl-L-ascorbic acid hydrochloride]
pKa (pKa by titration; read-out: pKa): 8

COCCOC1=C(O)C(=O)O[C@@H]1[C@@H]1COC(c2ccccc2)O1 (stereo partly drawn) [3-(2-methoxyethyl)-5,6-O-benzylidine-L-ascorbic acid]
inhibition in vivo at 150 mg/kg (angiogenesis factor; [2]): 31%

COc1ccc(OC)c(C(=O)COC2=C(O)C(=O)O[C@@H]2[C@@H]2COC(C)(C)O2)c1 [3-O-(2,5-dimethoxyphenacyl)-5,6-O-(1-methylethylidene)-L-ascorbic acid]
pKa (pKa by titration; read-out: pKa): 10.6

CC1(C)OC[C@@H]([C@H]2OC(=O)C(O)=C2OCCOCCBr)O1 [3-O-(2-bromoethoxyethyl)-5,6-O-(1-methylethylidene)-L-ascorbic acid]
inhibition in vivo at 240 mg/kg (angiogenesis factor; Mus musculus, ip, 24 h, Table 2, dose 240 mg./kg.): 71% | pKa (pKa by titration; read-out: pKa): 10.4

O=C1O[C@H]([C@@H](O)CO)C(OCCOCCBr)=C1O [3-O-(2-bromoethoxyethyl)-L-ascorbic acid]
inhibition in vivo at 300 mg/kg (angiogenesis factor; [3]): 36%

COCCOC1=C(O)C(=O)O[C@@H]1[C@@H]1COC(C)(C)O1 [3-O-(2-methoxyethyl)-5,6-O-(1-methylethylidene)-L-ascorbic acid]
% inhibition (serpentine vessels) (angiogenesis factor; Table 2, i.p., range dose 10-240 mg./kg., 24 hours): 28-61% | pKa (pKa by titration): 10.31

Cc1ccccc1COC1=C(O)C(=O)O[C@@H]1[C@@H](O)CO [3-O-(2-methylbenzyl)-L-ascorbic acid]
pKa (pKa by titration; read-out: pKa): 10.8

CC1(C)OC[C@@H]([C@H]2OC(=O)C(O)=C2OCCN2C(=O)c3ccccc3C2=O)O1 [3-O-(2-phthalimidoethyl)-5,6-O-(1-methylethylidene)-L-ascorbic acid]
inhibition in vivo at 120 mg/kg (angiogenesis factor; Mus musculus, ip, 24 h, Table 2, dose 120 mg./kg.): 30% | pKa (pKa by titration; read-out: pKa): 10.3

O=C1O[C@H]([C@@H](O)CO)C(OCCN2C(=O)c3ccccc3C2=O)=C1O [3-O-(2-phthalimidoethyl)-L-ascorbic acid]
inhibition in vivo at 300 mg/kg (angiogenesis factor; [3]): 55%

O=C1O[C@H]([C@@H](O)CO)C(OCc2cccc(Br)c2)=C1O [3-O-(3-bromobenzyl)-L-ascorbic acid]
inhibition in vivo at 300 mg/kg (angiogenesis factor; [3]): 74% | pKa (pKa by titration; read-out: pKa): 10.5

O=C1O[C@H]([C@@H](O)CO)C(OCc2cccc(Cl)c2)=C1O [3-O-(3-chlorobenzyl)-L-ascorbic acid]
inhibition in vivo at 25 mg/kg (angiogenesis factor; [4]): 41%

CC1(C)OC[C@@H]([C@H]2OC(=O)C(O)=C2OCc2cccc(F)c2)O1 [3-O-(3-fluorobenzyl)-5,6-O-(1-methylethylidene)-L-ascorbic acid]
inhibition in vivo at 25 mg/kg (angiogenesis factor; [1]): 27 to 82%

O=C1O[C@H]([C@@H](O)CO)C(OCc2cccc(F)c2)=C1O [3-O-(3-fluorobenzyl)-L-ascorbic acid]
inhibition in vivo at 25 mg/kg (angiogenesis factor; [4]): 52%

Cc1cccc(COC2=C(O)C(=O)O[C@@H]2[C@@H](O)CO)c1 [3-O-(3-methylbenzyl)-L-ascorbic acid]
inhibition in vivo at 25 mg/kg (angiogenesis factor; [4]): 54%

CC1(C)OC[C@@H]([C@H]2OC(=O)C(O)=C2OCCCOc2ccccc2)O1 [3-O-(3-phenoxypropyl)-5,6-O-(1-methylethylidene)-L-ascorbic acid]
inhibition in vivo at 150 mg/kg (angiogenesis factor; [5]): 36% | pKa (pKa by titration; read-out: pKa): 10.7

O=C1O[C@H]([C@@H](O)CO)C(OCCCOc2ccccc2)=C1O [3-O-(3-phenoxypropyl)-L-ascorbic acid]
inhibition in vivo at 300 mg/kg (angiogenesis factor; [3]): 68%

CC1(C)OC[C@@H]([C@H]2OC(=O)C(O)=C2OCc2ccc([N+](=O)[O-])cc2)O1 [3-O-(4-nitrobenzyl)-5,6-O-(1-methylethylidene)-L-ascorbic acid]
inhibition in vivo at 150 mg/kg (angiogenesis factor; [5]): 42 to 85% | pKa (pKa by titration; read-out: pKa): 10.1

CC1(C)OC[C@@H]([C@H]2OC(=O)C(O)=C2OCCCCCCCCCCCO)O1 [3-O-(11-hydroxyundecyl)-5,6-O-(1-methylethylidene)-L-ascorbic acid]
inhibition in vivo at 150 mg/kg (angiogenesis factor; [5]): 67% | pKa (pKa by titration; read-out: pKa): 10.8

O=C(O)CCCCCCCCCCOC1=C(O)C(=O)O[C@@H]1[C@@H](O)CO [3-O-(ω-hydroxycarbonyldecyl)-L-ascorbic acid]
inhibition in vivo at 25 mg/kg (angiogenesis factor; [4]): 41%

CCCCOC1=C(O)C(=O)O[C@@H]1[C@@H]1COC(c2ccccc2)O1 (stereo partly drawn) [3-O-n-butyl-5,6-O-(benzylidene)-L-ascorbic acid]
inhibition in vivo at 150 mg/kg (angiogenesis factor; [2]): 60%

CCCCCCCCCCCCCCCCOC1=C(O)C(=O)O[C@@H]1[C@@H](O)CO [3-O-n-hexadecyl)-L-ascorbic acid]
inhibition in vivo at 25 mg/kg (angiogenesis factor; [4]): 31% | pKa (pKa by titration; read-out: pKa): 11.1

CCCCCCCCCCCCCCCCCCOC1=C(O)C(=O)O[C@@H]1[C@@H]1COC(C)(CCl)O1 (stereo partly drawn) [3-O-n-octadecyl-5,6-O-(1-chloromethylethylidene)-L-ascorbic acid]
pKa (pKa by titration; read-out: pKa): 9

CCCCCCCCCCCCCCCCCCOC1=C(O)C(=O)O[C@H]1[C@H](O)CO [3-O-n-octadecyl-D-ascorbic acid]
pKa (pKa by titration; read-out: pKa): 11

CCCCCCCCCCCCCCCOC1=C(O)C(=O)O[C@@H]1[C@@H]1COC(C)(C)O1 [3-O-n-pentadecyl-5,6-O-(1-methylethylidene)-L-ascorbic acid]
pKa (pKa by titration; read-out: pKa): 10.9

CCCCCCCCCCCCCCCOC1=C(O)C(=O)O[C@@H]1[C@@H](O)CO [3-O-n-pentadecyl-L-ascorbic acid]
inhibition in vivo at 300 mg/kg (angiogenesis factor; [3]): 50%

O=C1OC(C2COC(Cc3ccccc3)(Cc3ccccc3)O2)C(O)=C1O [5,6-O-(1-benzyl-2-phenylethylidene)-L-ascorbic acid]
pKa (pKa by titration; read-out: pKa): 6.55

CC1(CCl)OC[C@@H]([C@H]2OC(=O)C(O)=C2O)O1 (stereo partly drawn) [5,6-O-(1-chloromethylethylidene)-L-ascorbic acid]
pKa (pKa by titration; read-out: pKa): 6.1

CCCCCCCCCCC1OC[C@@H]([C@H]2OC(=O)C(O)=C2O)O1 (stereo partly drawn) [5,6-O-undecylidene-L-ascorbic acid]
pKa (pKa by titration; read-out: pKa): 6.48

O=C1O[C@H]([C@@H](O)CO)C(OCc2ccccc2Cl)=C1O [R=2-chlorobenzyl, R^1=H (Table 1)]
average % inhibition (serpentine vessels) (angiogenesis factor; Table 1, i.p., dose 25 mg./kg., 24 hours): 55%

CCOC(=O)COC1=C(O)C(=O)O[C@@H]1[C@@H]1COC(C)(C)O1 [R=C2 H5 OCOCH2, R^1=H (Table 2)]
% inhibition (serpentine vessels) (angiogenesis factor; [6]): 12%

COC1=C(O)C(=O)O[C@@H]1[C@@H]1COC(C)(C)O1 [R=methyl, R^1=H (Table 2)]
% inhibition (serpentine vessels) (angiogenesis factor; [6]): 15%

CCCCOC1=C(O)C(=O)O[C@@H]1[C@@H]1COC(C)(C)O1 [R=n-butyl, R^1=H (Table 2)]
% inhibition (serpentine vessels) (angiogenesis factor; [6]): 60%

CCCCCCCCCCOC1=C(O)C(=O)O[C@@H]1[C@@H]1COC(C)(C)O1 [R=n-decyl, R^1=H (Table 2)]
% inhibition (serpentine vessels) (angiogenesis factor; [6]): 48%

CCCCCCOC1=C(O)C(=O)O[C@@H]1[C@@H]1COC(C)(C)O1 [R=n-hexyl, R^1=H (Table 2)]
% inhibition (serpentine vessels) (angiogenesis factor; [6]): 41%
